We go through 19 compounds from patent US7407939B2, “Protein kinase inhibitors comprising ATP mimetics conjugated to peptides or peptidomimetics” (CureGenics Ltd., priority 2001, dated 2008).

One test addresses T1, PKA (Bos taurus, UniProt P00517).
T1 construct: purchased Promega
Description: In vitro PKA kinase activity assay (kemptide / SPA beads).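 Further: Cell-free assay of purified PKA catalytic subunit phosphorylating the 7-mer kemptide substrate, run in MOPS buffer with magnesium acetate and BSA, with blank wells lacking enzyme.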 Format: biochemical. Details: % Inhibition PKA: concentration or dose not given beside the values.

The next test has as its target T2, PKB (Homo sapiens, UniProt P31749).
T2 construct: His; HA; made in house
Nature of the test: PKB in vitro kinase activity assay (soluble His-HA-PKB / SPA bead screening). In kind it is biochemical. On the set-up: % Inhibition PKB I / % Inhibition PKB II: concentration or dose not given beside the values.

A further test has as its system PC-3 cells. Nature of the test: ssDNA apoptosis ELISA (induction of apoptosis in prostate cancer cells). Conditions: 50 μM, optical density of treated divided by untreated cells. Format: cell-based. The procedure:
Cells were assayed for Apoptosis using the ssDNA Apoptosis ELISA kit (Chemicon International Inc.). Cells were seeded in 96-well plates (5000 cells/well) and treated with different concentrations of the inhibitors. At different time point, plates were centrifuges at 200 g for 5 min, medium was removed and the cells were fixed with 80% methanol in PBS for 30 min at room temperature. Plates were dried by floating in a waterbath at 37° C. for 20 minutes. 50 μl of Formamide was added to each well and incubate at room temperature for 10 min. Plates were heated to 75° C. in a circulating waterbath for 10 min, cooled in refrigerator for 5 min, and then formamide was removed. Plates were blocked by 3% non-fat dry milk in distilled water (w/v) for 1 hr at 37° C. Blocking was removed and 100 μl of antibody mixture (primary monoclonal antibody to ssDNA and HRP-labelled anti-mouse IgM) was added to each well. Plates were monitored for colour development by ABTS using microplate reader at 405 nm.
DNA in apoptotic cells is sensitive to denaturation by formamide in contrast to necrotic cells. This sensitivity is due to changes in apoptotic cells chromatin. The specific denaturation was detected with monoclonal antibody to single stranded DNA. Using ssDNA Apoptosis ELISA kit (Chemicon International, Inc.) chimeric compounds were analyzed for their potential to induce apoptosis in PC-3 cells compared to TRAIL (TNF-related apoptosis-inducing ligand), a known apoptotic agent (R&D Systems, Inc.). Results are presented in values of apoptotic index which is calculated by dividing the optical density of treated and untreated cells.

Where [1] appears, read: Table 2, chimeric compounds, read-out: Activity PKA.
[2] abbreviates: chimeric PTR compounds (peptide conjugated to isoquinoline small molecule), read-out: PKA IC50.
The mark [3] stands for this setting: chimeric PTR compounds (peptide conjugated to isoquinoline small molecule), read-out: PKB IC50.
Setting [4] is: Table 3, linear 7-mer peptides, read-out: Activity PKA.
The mark [5] stands for this setting: Table 3, linear 7-mer peptides, read-out: Activity PKB.

Where two headings read alike, the source gives them in different places. *1 amine or outer side, *2 acyl side, *3 side chain or, on linkers, in order; H or OH if unused. Where a SMILES comes first, the peptide text is derived from it. Side-chain parts run from the residue outwards. [ ]: non-standard residue; d: D form. The star is where a group is joined. Isoquinoline5sulfonyl = O=S(=O)(c1cccc2cnccc12)*; X2 = O=C(OCC(Cc1ccccc1)N[*:1])[*:2]; Ethylenediamine = C(CN[*:2])N[*:1]; hLeu = CC(C)CC[C@H](N)C(=O)O; Nle = CCCC[C@H](N)C(=O)O; Dab = NCC[C@H](N)C(=O)O; Nva = CCC[C@H](N)C(=O)O; Abu = CC[C@H](N)C(=O)O; Dap = NC[C@H](N)C(=O)O; Ava = NCCCCC(=O)O; βAla = NCCC(=O)O

T2 sequence (P31749 whole entry, species assumed): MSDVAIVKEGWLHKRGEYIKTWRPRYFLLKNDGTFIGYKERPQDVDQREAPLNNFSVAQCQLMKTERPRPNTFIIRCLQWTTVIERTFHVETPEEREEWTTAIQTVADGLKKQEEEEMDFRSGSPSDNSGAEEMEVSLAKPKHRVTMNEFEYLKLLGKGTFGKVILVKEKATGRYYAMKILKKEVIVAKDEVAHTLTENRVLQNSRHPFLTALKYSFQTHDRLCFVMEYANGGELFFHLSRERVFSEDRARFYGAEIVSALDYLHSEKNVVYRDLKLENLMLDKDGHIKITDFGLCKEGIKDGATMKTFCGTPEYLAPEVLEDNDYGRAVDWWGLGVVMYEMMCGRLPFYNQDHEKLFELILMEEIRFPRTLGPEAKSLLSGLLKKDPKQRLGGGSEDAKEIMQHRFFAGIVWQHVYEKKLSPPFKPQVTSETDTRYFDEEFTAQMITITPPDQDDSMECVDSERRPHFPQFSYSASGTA
Description for PKA: PKA enzyme was purchased from Promega. PKA activity is assayed on a 7-mer peptide, LRRASLG, known as kemptide. The assay is carried out in 96-well plates, in a final volume of 50 μl per well. The reaction mixture includes various concentrations of the inhibitor, 50 mM MOPS, 10 mM MgAc, 0.2 mg/ml BSA, 10 μM ATP, 20 μM Kemptide and 1 μCi γ^32P ATP. Reaction is started with addition of 15 μl of the catalytic subunit of PKA diluted in 0.1 mg/ml BSA, 0.4 U/well. Two blank wells without enzyme are included in every assay. The plates are agitated continuously at 30° C. for 10′ or at 27° C. for 1 hour. Reaction is stopped by addition of 12 μl 200 mM EDTA. 20 μl aliquots of the assay mixture are spotted onto 2 cm^2 phosphocellulose strips (e.g. Whatman P81) and immersed in 75 mM phosphoric acid (10 ml per sample). The phosphocellulose strips are washed 6 times. Washes are done in continuous swirling for 5 minutes, last wash is in acetone. After air drying the strips, radiation is measured by scintillation spectrometry.
Screening compounds for PKA inhibition was performed in 96-well plate using SPA beads, as described below for PKB with the following modifications; The enzyme substrate was 5 μM biotinylated-kemptide peptide (biotin-[sequence]). The kinase buffer was 50 mM MOPS pH 7, 0.2 mg/ml BSA, 10 mM Magnesium acetate. PKA (0.4 unit) diluted in 0.1 mg/ml BSA was added to each well.
Description for PKB: The enzyme activity measurement is performed as described in the assay for PKA.
Kinase reaction was carried out in final volume of 50 μl. […] The kinase reaction was started by adding 10 μl of 2 μM cold ATP and 0.25 μCi of [γ^33P]-ATP in kinase buffer. The plates were incubated at 27° C. for 1 hr. At the end of the incubation the reaction was stopped by 200 μl of PBS containing 0.1% Triton X-100, 5 mM EDTA, 1 mM ATP and 0.3 mg/ml of Streptavidin-coated SPA bead (Amersham Pharmacia Biotech). After 15 min incubation at room temperature, the reaction mixtures were filtered using Packard GF/B 96-well plates. The plates were washed twice with 2M NaCl and 1% orthophosphoric acid followed by ethanol wash and 1 h air-dry. The radioactivity was counted using microplate counter Packard Top Count

Consider `CC[C@H](NC(=O)[C@H](CO)NC(=O)[C@@H](NC(=O)[C@H](CCCNC(=N)N)NC(=O)[C@@H]1CCCN1C(=O)[C@@H](N)CCCNC(=N)N)[C@@H](C)O)C(=O)NC(COC(=O)NCCNS(=O)(=O)c1cccc2cnccc12)Cc1ccccc1` (stereo partly shown) [PTR 6013] (H-RPRTS[Abu][X2]-{Ethylenediamine-Isoquinoline5sulfonyl}), for which the IC50 on PKA (setting [1]) was 1 µM; at PKB (Table 2, chimeric compounds, read-out: Activity PKB), 3 µM.
In the case of `C[C@@H](O)[C@H](NC(=O)[C@H](CCCNC(=N)N)NC(=O)[C@@H]1CCCN1C(=O)[C@@H](N)CCCNC(=N)N)C(=O)N[C@@H](CCC(=O)NCCNS(=O)(=O)c1cccc2cnccc12)C(=O)N[C@@H](CO)C(=O)N[C@@H](Cc1ccccc1)C(N)=O` [PTR 6016] (H-RPRTE([Ethylenediamine-Isoquinoline5sulfonyl])SF-NH2; N-terminus assumed), the “Apoptotic index (48 hours)” value in the test on PC-3 cells came to 3.4. The IC50 at PKA (setting [1]) was 0.5 µM; on PKA (setting [2]), 0.1 µM; on PKB (FIG. 1, synergistic effect of conjugation, read-out: activity (PKB inhibition)) it was 0.9 µM; on PKB (setting [3]), 1 µM.
Take `CC(C)CC[C@H](NC(=O)[C@H](C)NC(=O)[C@H](CO)NC(=O)[C@@H](NC(=O)[C@H](CCCNC(=N)N)NC(=O)[C@@H]1CCCN1C(=O)[C@@H](N)CCCNC(=N)N)[C@@H](C)O)C(N)=O` [TY 60002-50, Arg-Pro-Arg-Thr-Ser-Ala-Hol] (H-RPRTSA[hLeu]-NH2; N-terminus and C-terminus assumed): the IC50 at PKA (setting [4]) is above 40 µM; at PKB (setting [5]), 5 µM.
In the same order, the values of `CC[C@H](NC(=O)[C@H](CO)NC(=O)[C@@H](NC(=O)[C@H](CCCNC(=N)N)NC(=O)[C@@H]1CCCN1C(=O)[C@@H](N)CCCNC(=N)N)C(C)C)C(=O)N[C@@H](Cc1ccccc1)C(N)=O` [TY 60002-61, Arg-Pro-Arg-Val-Ser-Abu-Phe] (H-RPRVS[Abu]F-NH2; N-terminus and C-terminus assumed) are above 40 µM and 5 µM.
As to `CC[C@H](NC(=O)[C@H](CO)NC(=O)[C@@H](NC(=O)[C@H](CCCNC(=N)N)NC(=O)[C@@H]1CCCN1C(=O)[C@@H](N)CCCNC(=N)N)[C@@H](C)O)C(=O)N[C@@H](CCC(C)C)C(N)=O` [TY 60002-73, Arg-Pro-Arg-Thr-Ser-Abu-Hol] (H-RPRTS[Abu][hLeu]-NH2; N-terminus and C-terminus assumed), the IC50 on PKA (setting [4]) is above 40 µM; at PKA (Table 10, accurate IC50 curve, peptide moiety alone, read-out: IC50 μM PKA), 228 µM; at PKB (setting [5]), 5 µM; at PKB (Table 10, accurate IC50 curve, peptide moiety alone, read-out: IC50 μM PKB) it was 34 µM. Moreover, the “% Inhibition PKA” value on PKA (plate screening, peptide moiety alone) was 8%. The “% Inhibition PKB I” value on PKB (plate screening, peptide moiety alone, PKB I) stood at 44%.
In the case of `CC(C)CC[C@H](NC(=O)[C@H](CN)NC(=O)[C@H](CO)NC(=O)[C@@H](NC(=O)[C@H](CCCNC(=N)N)NC(=O)[C@@H]1CCCN1C(=O)[C@@H](N)CCCNC(=N)N)[C@@H](C)O)C(N)=O` [TY 60002-96, Arg-Pro-Arg-Thr-Ser-Dap-Hol] (H-RPRTS[Dap][hLeu]-NH2; N-terminus and C-terminus assumed), the IC50 was above 40 µM at PKA (setting [4]) and 5 µM at PKB (setting [5]).
As for `C[C@@H](O)[C@H](NC(=O)[C@H](CCCNC(=N)N)NC(=O)[C@@H]1CCCN1C(=O)[C@@H](N)CCCNC(=N)N)C(=O)N[C@@H](CCC(=O)NCCC(=O)NCCNS(=O)(=O)c1cccc2cnccc12)C(=O)N[C@@H](CO)C(=O)N[C@@H](Cc1ccccc1)C(N)=O` [compound 6082] (H-RPRTE([βAla-Ethylenediamine-Isoquinoline5sulfonyl])SF-NH2; N-terminus assumed), the “Apoptotic index (48 hours)” value in the test with PC-3 cells is listed as 2.6. Besides, the IC50 on PKA (setting [2]) came to 0.2 µM; at PKB (setting [3]), 5.54 µM.
In the same order, the values of `CCCC[C@H](NC(=O)[C@H](CCCNC(=N)N)NC(=O)[C@@H]1CCCN1C(=O)[C@@H](N)CCCNC(=N)N)C(=O)N[C@@H](CCC(=O)NCCC(=O)NCCNS(=O)(=O)c1cccc2cnccc12)C(=O)N[C@@H](CO)C(=O)N[C@@H](Cc1ccccc1)C(N)=O` [compound 6086] are 2.5, 0.5 µM and 0.57 µM.
For `C[C@@H](O)[C@H](NC(=O)[C@H](CCCNC(=N)N)NC(=O)[C@@H]1CCCN1C(=O)[C@@H](N)CCCNC(=N)N)C(=O)N[C@@H](CCC(=O)NCCCCC(=O)NCCNS(=O)(=O)c1cccc2cnccc12)C(=O)N[C@@H](CO)C(=O)N[C@@H](Cc1ccccc1)C(N)=O` [compound 6090] (H-RPRTE([Ava-Ethylenediamine-Isoquinoline5sulfonyl])SF-NH2; N-terminus assumed), the IC50 was 0.6 µM on PKA (setting [2]) and 5.6 µM on PKB (setting [3]).
For `CCCC[C@H](NC(=O)[C@H](CO)NC(=O)[C@H](CCC(=O)NCCC(=O)NCCNS(=O)(=O)c1cccc2cnccc12)NC(=O)[C@H](CCCC)NC(=O)[C@H](CCCNC(=N)N)NC(=O)[C@@H]1CCCN1C(=O)[C@@H](N)CCCNC(=N)N)C(N)=O` [compound 6096] (H-RPR[Nle]E([βAla-Ethylenediamine-Isoquinoline5sulfonyl])S[Nle]-NH2; N-terminus assumed), the “Apoptotic index (48 hours)” value with PC-3 cells is 3.2. In addition, the IC50 stood at 0.2 µM at PKA (setting [2]) and 0.93 µM on PKB (setting [3]).
Take `CCCC[C@H](NC(=O)[C@H](CCCNC(=N)N)NC(=O)[C@@H]1CCCN1C(=O)[C@@H](N)CCCNC(=N)N)C(=O)N[C@@H](CCC(=O)NCCNS(=O)(=O)c1cccc2cnccc12)C(=O)N[C@@H](CO)C(=O)N[C@@H](Cc1ccccc1)C(N)=O` [compound 6128]: the IC50 on PKA (setting [2]) turned out to be 0.1 µM; on PKB (setting [3]), 9 µM.
As for `C[C@@H](O)[C@H](NC(=O)[C@H](CCCNC(=N)N)NC(=O)[C@@H]1CCCN1C(=O)[C@@H](N)CCCNC(=N)N)C(=O)N[C@@H](CC(=O)NCCNS(=O)(=O)c1cccc2cnccc12)C(=O)N[C@@H](CO)C(=O)N[C@@H](Cc1ccccc1)C(N)=O` [compound 6130] (H-RPRTD([Ethylenediamine-Isoquinoline5sulfonyl])SF-NH2; N-terminus assumed), the IC50 was found to be 0.053 µM at PKA (setting [2]) and 9.5 µM at PKB (setting [3]).
Regarding `CCCC[C@H](NC(=O)[C@H](CCCNC(=N)N)NC(=O)[C@@H]1CCCN1C(=O)[C@@H](N)CCCNC(=N)N)C(=O)N[C@@H](CCC(=O)NCCC(=O)NCCNS(=O)(=O)c1cccc2cnccc12)C(=O)N[C@@H](CC)C(=O)N[C@@H](Cc1ccccc1)C(N)=O` [compound 6138] (H-RPR[Nle]E([βAla-Ethylenediamine-Isoquinoline5sulfonyl])[Abu]F-NH2; N-terminus assumed), the “Apoptotic index (48 hours)” value in the test with PC-3 cells is reported as 3.6. Further, on PKB (setting [3]), the IC50 was determined as 2 µM.
Regarding `CCCC[C@H](NC(=O)[C@H](CCCNC(=N)N)NC(=O)[C@@H]1CCCN1C(=O)[C@@H](N)CCCNC(=N)N)C(=O)N[C@@H](CCC(=O)NCCC(=O)NCCNS(=O)(=O)c1cccc2cnccc12)C(=O)N[C@@H](CCN)C(=O)N[C@@H](Cc1ccccc1)C(N)=O` [compound 6140] (H-RPR[Nle]E([βAla-Ethylenediamine-Isoquinoline5sulfonyl])[Dab]F-NH2; N-terminus assumed), the “Apoptotic index (48 hours)” value with PC-3 cells was found to be 4.0. Besides, the values for the IC50 on PKA (setting [2]) and at PKB (setting [3]) were 0.195 µM and 0.413 µM, respectively.
With `CCC[C@H](NC(=O)[C@H](CCCNC(=N)N)NC(=O)[C@@H]1CCCN1C(=O)[C@@H](N)CCCNC(=N)N)C(=O)N[C@@H](CCC(=O)NCCC(=O)NCCNS(=O)(=O)c1cccc2cnccc12)C(=O)N[C@@H](C)C(=O)N[C@@H](CCC(C)C)C(N)=O` [compound 6152] (H-RPR[Nva]E([βAla-Ethylenediamine-Isoquinoline5sulfonyl])A[hLeu]-NH2; N-terminus assumed), the “Apoptotic index (48 hours)” value in the test with PC-3 cells is 1.5. For the same compound, the IC50 on PKA (setting [2]) and at PKB (setting [3]) was 5 µM throughout.
On to “Arg-Pro-Arg-Nle-Glu-(5-mercaptoaminopropyl-isoquinoline)-Ser-Phe [PTR 6136]”, for which the “Apoptotic index (48 hours)” value in the test with PC-3 cells amounted to 2.4.
Same read-out and setting: the same measure for “Arg-Pro-Arg-Nva-Glu-(5-mercaptoaminopropyl-isoquinoline)-Ser-Phe [PTR 6134]”: 2.2.
With “Arg-Pro-Arg-Thr-Glu-(5-mercaptoaminopropyl-isoquinoline)-Ser-Phe [PTR 6104]”, in the test on PC-3 cells, the “Apoptotic index (48 hours)” value is recorded as 2.9.
Same read-out and setting: the same measure for “Arg-Pro-Arg-Thr-Glu-(bAla-5-mercaptoaminopropyl-isoquinoline)-Ser-Phe [PTR 6102]”: 2.7.
